Test results reported in patent US20100015050A1, “PEG AND TARGETING LIGANDS ON NANOPARTICLE SURFACE” (WAYNE STATE UNIVERSITY, priority 2006, published 2010).

Tests used:
[1] = tested on: vascular smooth muscle cells; assay: MTS cytotoxicity of dexamethasone formulations; format: cell-based; details: nanoparticles 600 μg/mL or drug solution 25 μg/mL, single dose
Experimental: Nanoparticle formulations with different drug release rates were formulated by emulsion solvent evaporation technique. […] Data represented as mean±SD, n=3. The two formulations were investigated for cytotoxicity in vascular smooth muscle cells. Cells were plated in 96-well plates at a density of 5000 cells/well/0.1 mL. A nanoparticle suspension prepared in regular serum-containing growth medium (600 μg/mL, 0.1 mL) was added to each well. Drug solution in growth medium (25 μg/mL) was also added to some of the wells. Untreated cells were used as controls. Cytotoxicity was determined using a standard MTS assay. The medium was changed on day 2 and every other day thereafter, and no further dose of drug was added. Data as mean±SD, n=6. […] Data represented as mean±SEM, n=3. Cells were plated at 100,000 cells/well/2 ml in 6-well plates. Drug encapsulated in nanoparticles (600 μg of nanoparticles/ml, 2 ml) or in solution (25 μg/ml, 2 ml) was added to each well. Medium was changed on day 2 and every other day thereafter, and no further dose of the drug was added.

NCl/ADR-RES cells [2] = assay: MTS cytotoxicity in drug-resistant, P-gp overexpressing cells; format: cell-based; details: paclitaxel 100 nM in solution or in nanoparticles, no verapamil
Experimental: (§1) Drug sensitive (MCF-7) and drug-resistant (NCl/ADR-RES) cells were plated in 96-well plates at a density of 5000 cells/well/0.1 mL. Cells were then treated with paclitaxel (Pac) in solution (100 nM) or equivalent in nanoparticles (NP). […] Untreated cells and cells treated with empty nanoparticles were used as controls. Cytotoxicity was followed using a standard MTS assay (see Methods). […] Data as mean±SD, n=6 wells. * P<0.05.
NCl/ADR-RES cells were plated in 96-well plates at a density of 5000 cells/well/0.1 mL. Cells were then treated with paclitaxel (Pac, 100 nM) in nanoparticles (NP). […] Untreated cells were used as controls. Cytotoxicity was followed as a function of time using a standard MTS assay. The medium was changed on day 2 and every other day thereafter, and no further dose of drug was added.
Drug-resistant (NCl/ADR-RES) cells were plated in 96-well plates at a density of 5000 cells/well/0.1 mL. Cells were then treated with dual-agent nanoparticles releasing 0.3 ng/day/8 μg siRNA and 7 ng/day/8 μg paclitaxel. Cells treated with non-targeted (scrambled) siRNA and untreated cells were used as controls. Cytotoxicity was followed using a standard MTS assay. The medium was changed on day 2 and every other day thereafter, and no further dose of drug was added. Data as mean±SD, n=6 wells. * P<0.05 compared to controls. […]

MCF-7 cells = assay: MTS cytotoxicity of paclitaxel treatments in drug-sensitive cells; format: cell-based; details: paclitaxel 100 nM in solution or equivalent in nanoparticles; compared to untreated cells
Experimental: as §1
The inventors initially investigated the efficacy of paclitaxel encapsulated in nanoparticles in drug-sensitive MCF-7 cells.

MCF-7 xenografts = assay: tumor growth and survival after single-dose paclitaxel treatment; format: in vivo; details: 400 μg paclitaxel/animal, nude mice
Text: Effect of a single-dose paclitaxel treatment on tumor growth was investigated in nude mice bearing MCF-7 xenografts.

NCl/ADR-RES cells [3] = assay: nanoparticle uptake/retention and paclitaxel accumulation in cells (HPLC); format: cell-based; details: inhibition of P-gp by verapamil
Experimental: NCl/ADR-RES cells were plated in 24-well plates at a density of 50,000 cells/well/1 mL. […] The medium was changed on day 2 and every other day thereafter, and no further dose of drug was added. Cells were harvested at different time intervals, and lysed using cell culture lysis reagent (Promega).
In order to verify that differences in drug accumulation are not due to differences in nanoparticle uptake/retention in cells, the inventors labeled nanoparticles with 6-coumarin, and followed the cell uptake and retention of nanoparticles and paclitaxel in NCl/ADR-RES cells.

With `C[C@@H]1C[C@H]2[C@@H]3CCC4=CC(=O)C=C[C@]4(C)[C@@]3(F)[C@@H](O)C[C@]2(C)[C@@]1(O)C(=O)CO` [dexamethasone] as the compound, how does the “cytotoxicity / inhibition of cell proliferation” value [1] read?
Its value is “transient cytotoxicity”.

And the duration of cytotoxicity [1]?
The duration of cytotoxicity was “up to 5 days”.

How did the “effect on the viability of cells” value (NCl/ADR-RES cells [2]) turn out when `CC(=O)O[C@H]1C(=O)[C@@]2(C)[C@H]([C@H](OC(=O)c3ccccc3)[C@]3(O)C[C@H](OC(=O)[C@H](O)[C@@H](NC(=O)c4ccccc4)c4ccccc4)C(C)=C1C3(C)C)[C@]1(OC(C)=O)CO[C@@H]1C[C@@H]2O` [paclitaxel] was run?
The value was “no significant effect on the viability of cells”.

What about the “inhibition of cell proliferation” value (MCF-7 cells) of the same compound?
The value was “marginal but significant (P<0.05) inhibition of cell proliferation”.

What about the “effect on tumor growth” value (MCF-7 xenografts) of the same compound?
The value was “only marginally effective”.

How did the “effect on uptake or retention of nanoparticles” value (NCl/ADR-RES cells [3]) turn out when `COc1ccc(CCN(C)CCCC(C#N)(c2ccc(OC)c(OC)c2)C(C)C)cc1OC` (stereo not drawn) [verapamil] was run?
The value was “did not significantly increase the uptake or retention of nanoparticles”.
